The text below walks through data of patent US20250381179A1, “CHROMAN-BASED COMPOUNDS FOR TREATING CANCER” (priority 2024, published 2025).

One series addresses CYP2C19 (Homo sapiens, UniProt P33261).
The test system of the next series is CYP3A. The experiment in a line: in vitro. Conditions: human.
A further series relates to MCF7 cells. The experiment in a line: MCF7 cell growth inhibition (luminescence-based proliferation assay, CellTiter-Glo). Here is the method: MCF7 cells were obtained from American Type Culture Collection (ATCC). For cell growth assay, MCF7 cells were seeded in 96-well plates at 2000 cells/well in 90 μL of DMEM medium containing 10% fetal bovine serum, and then incubated at 37° C. with 5% CO2 in air overnight. The following day, compound (1-g) and compound (1-h) were administered to the cells by using 1000× compound stock solution prepared in DMSO at concentrations of 3, 1, 0.33, 0.11, 0.037, 0.012, 0.0041, 0.0013, and 0.00046 mM. 1000x compound stock solution was first diluted in culturing medium to 10×, then 10 μL compound medium was added to each well in the cell plates. After administration of compound (1-g) and compound (1-h), the cells were then incubated at 37° C. for 6 days. Upon completion, the plates were equilibrated at room temperature for approximately 10 minutes. 100 μL of CellTiter-Glo® Reagent (Promega) was added to each well. The plates were then incubated at room temperature for 10 minutes and luminescence was recorded by EnSpire plate reader (PerkinElmer).

Chain of CYP2C19 (P33261 whole entry): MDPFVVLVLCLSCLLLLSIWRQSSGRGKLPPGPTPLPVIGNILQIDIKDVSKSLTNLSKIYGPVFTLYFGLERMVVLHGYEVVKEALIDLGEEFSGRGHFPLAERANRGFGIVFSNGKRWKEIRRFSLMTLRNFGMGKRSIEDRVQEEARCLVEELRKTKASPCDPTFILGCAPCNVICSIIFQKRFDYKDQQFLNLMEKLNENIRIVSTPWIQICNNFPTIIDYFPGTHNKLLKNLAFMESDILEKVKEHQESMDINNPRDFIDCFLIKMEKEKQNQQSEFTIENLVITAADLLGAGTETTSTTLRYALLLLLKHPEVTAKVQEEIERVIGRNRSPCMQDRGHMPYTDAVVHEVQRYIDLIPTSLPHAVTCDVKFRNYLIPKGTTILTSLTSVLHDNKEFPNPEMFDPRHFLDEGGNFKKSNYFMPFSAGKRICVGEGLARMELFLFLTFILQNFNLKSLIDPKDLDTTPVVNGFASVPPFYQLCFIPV

As to `O=C1CC[C@H](N2Cc3cc(N4CCN(CC5CCN(c6ccc([C@@H]7c8ccc(O)cc8OC[C@@H]7c7ccccc7)cc6F)CC5)CC4)ccc3C2=O)C(=O)N1` [compound (1-g), (S)-3-(5-(4-((1-(2-fluoro-4-((3S,4R)-7-hydroxy-3-phenylchroman-4-yl)phenyl)piperidin-4-yl)methyl)piperazin-1-yl)-1-oxoisoindolin-2-yl)piperidine-2,6-dione], the CYP2C19 time-dependent inhibition entry at CYP2C19 is recorded as “without showing time-dependent inhibition”. The molecule further returned an inhibition at 10 µM in the series with CYP3A of 31.3%. The molecule also gave a GI50 with MCF7 cells (Homo sapiens, 144 h, MCF7 cells, 6 days, CellTiter-Glo) of 6.2 nM. In the series with MCF7 cells (MCF7 cell proliferation assay), the “reduced the tumor growth by (FIG. 3A/3B)” value is listed as “about 50%”.

In general, inhibition refers to the change of the read-out against control, counted positive when it falls. Low readings indicate a response near the control, high ones a response far below the control. Broadly, the GI50 is the concentration giving 50% growth inhibition. A higher GI50 goes with less potent growth inhibition.
